Measurements reported in US8933070B2, “Methods of targeting PTEN mutant diseases and compositions therefor” (University Health Network, priority 2010, dated 2015).

How the values were obtained:
[1] = test system: SW620 colon cancer cell line; experiment: Cell growth inhibition, Sulforhodamine B (SRB) assay; assay type: cell-based; settings: Homo sapiens, SW-620, 120 h, read-out: Cell Line GI50 Range SW620
Protocol: (§1) Aliquots (20 μl) from each concentration were overlaid to 80 μl of the pre-seeded cells in the 96-plates to make final concentrations of 10 nM to 50 μM. The cells were cultured for 5 days before the Sulforhodamine B (SRB) assay was performed to determine the compound's cell growth inhibition activity.
(§2) Sulforhodamine B (Sigma, Canada) is a water-soluble dye that binds to the basic amino acids of cellular proteins. Thus, colorimetric measurement of the bound dye provides an estimate of the total protein mass that is related to the cell number. The cells are fixed in situ by gently aspirating off the culture media and adding 50 μl ice cold 10% Trichloroacetic Acid (TCA) per well and incubated at 4° C. for 30-60 min. The plates are washed with water five times and allowed to air dry for 5 min. Addition of 50 μl 0.4% (w/v) SRB solution in 1% (v/v) acetic acid to each well and incubatation for […] at RT completes the staining reaction. Following staining, plates are washed four times with 1% acetic acid to remove unbound dye and then allowed to air dry for 5 min. […] Absorbance is read at 570 nm.
(§3) The percentage (%) of relative growth inhibition was calculated by comparing to DMSO-treated only cells (100%). GI50's were determined for compounds with cytotoxic activity. The GI50 was calculated using GraphPad PRISM software (GraphPad Software, Inc., USA).

[2] = test system: A549 lung cancer cell line; experiment: as above; assay type: cell-based; settings: Homo sapiens, A549, 120 h, read-out: Cell Line GI50 Range A549
Protocol: as §1, §2, §3

AMPKalpha = experiment: Kinase selectivity assay (CEREP, HTRF); assay type: biochemical, human
Protocol: (§4) The inhibitory activity of selected compounds was evaluated against a panel of 45 different kinase enzymes by CEREP, France. The assays were performed using standard HTRF assay methods as documented by CEREP against the human orthologues of Abl kinase, Akt1/PKBa, AMPKa, BMX kinase (Etk), Brk, CaMK2a, CaMK4, CDC2/CDK1 (cycB), CHK1, CHK2, c-Met kinase, CSK, EphB4 kinase, ERK1, ERK2 (P42mapk), FGFR2 kinase, FGFR4 kinase, FLT-1 kinase (VEGFR1), FLT-3 kinase, Fyn kinase, IGF1R kinase, IRK (InsR), JNK 2, KDR kinase (VEGFR2), Lck kinase, Lyn kinase, MAPKAPK2, MEK1/MAP2K1, p38a kinase, p38d kinase, p38g kinase, PDGFRb kinase, PDK1, PKA, PKCa, PKCb1, PKCb2, PKCg, Ret kinase, ROCK2, RSK2, Src kinase, Syk, and TRKA. The % Inhibition was determined by the formula; % Inhibition=100×(1−(experimental value−background value)/(high activity control−background value)).

[3] = test system: H358 lung cancer cell line; experiment: Cell growth inhibition, SRB assay, extended panel; assay type: cell-based; settings: Homo sapiens, NCI-H358, read-out: GI50 Range H358
Protocol: (§5) Breast cancer cells (MCF-7, MDA-MB-468 and HCC1954), colon cancer cells (SW620) and lung cancer cells (A549), together with human mammary epithelial primary cells (HMEC) were seeded (1000 to 4000 per 80 μl per well depending on the cell growth rate) into 96-well plates 24 hours before compound overlay. Compounds were prepared as 10 mM stock solutions in 100% DMSO which were diluted with DMEM (Dulbecco's Modified Eagle's Medium) cell growth Medium (Invitrogen, Canada) containing 10% FBS (Fetal Bovine Serum) to concentrations ranging from 50 nM to 250 μM. Aliquots (20 μl) from each concentration were overlaid to 80 μl of the pre-seeded cells in the 96-plates to make final concentrations of 10 nM to 50 μM. The cells were cultured for 5 days before the Sulforhodamine B (SRB) assay was performed to determine the compound's cell growth inhibition activity.
(§6) Sulforhodamine B (Sigma, Canada) is a water-soluble dye that binds to the basic amino acids of cellular proteins. Thus, colorimetric measurement of the bound dye provides an estimate of the total protein mass that is related to the cell number. The cells are fixed in situ by gently aspirating off the culture media and adding 50 μl ice cold 10% Trichloroacetic Acid (TCA) per well and incubated at 4° C. for 30-60 min. The plates are washed with water five times and allowed to air dry for 5 min. Addition of 50 μl 0.4% (w/v) SRB solution in 1% (v/v) acetic acid to each well and incubatation for […] at RT completes the staining reaction. Following staining, plates are washed four times with 1% acetic acid to remove unbound dye and then allowed to air dry for 5 min. The stain is solubilized with 100 μl of 10 mM Tris pH 10.5 per well. Absorbance is read at 570 nm.
as §3
(§7) The SRB assay described above was used to assay test compounds against the extended panel (Table 6).

[4] = test system: PC-3 prostate cancer cell line; experiment: Cell growth inhibition, SRB assay, extended panel; assay type: cell-based; settings: read-out: GI50 Range PC-3
Protocol: as §5, §6, §3, §7

518A2 melanoma cell line = experiment: Cell growth inhibition, SRB assay, extended panel; assay type: cell-based; settings: Homo sapiens, 518A2, read-out: GI50 Range 518A2
Protocol: as §5, §6, §3, §7

[5] = test system: Hs683 brain cancer cell line; experiment: Cell growth inhibition, SRB assay, extended panel; assay type: cell-based; settings: Homo sapiens, Hs 683, read-out: GI50 Range Hs683
Protocol: as §5, §6, §3, §7

[6] = test system: Colo 205 colon cancer cell line; experiment: Cell growth inhibition, SRB assay, extended panel; assay type: cell-based; settings: Homo sapiens, COLO 205, read-out: GI50 Range Colo 205
Protocol: as §5, §6, §3, §7

[7] = test system: SK-N-SH brain cancer cell line; experiment: Cell growth inhibition, SRB assay, extended panel; assay type: cell-based; settings: Homo sapiens, read-out: GI50 Range SK-N-SH
Protocol: as §5, §6, §3, §7

[8] = test system: SK-OV-3 ovarian cancer cell line; experiment: Cell growth inhibition, SRB assay, extended panel; assay type: cell-based; settings: Homo sapiens, SK-OV-3, read-out: GI50 Range SK-OV-3
Protocol: as §5, §6, §3, §7

[9] = test system: BT-474 breast cancer cell line; experiment: Cell growth inhibition, SRB assay, extended panel; assay type: cell-based; settings: Homo sapiens, BT-474, read-out: GI50 Range BT-474
Protocol: as §5, §6, §3, §7

[10] = test system: Hs578T breast cancer cell line; experiment: Cell growth inhibition, SRB assay, extended panel; assay type: cell-based; settings: Homo sapiens, Hs-578T, read-out: GI50 Range Hs578T
Protocol: as §5, §6, §3, §7

KDR (VEGFR2) = KDR (VEGFR2) (Homo sapiens, UniProt P35968); experiment: Kinase selectivity assay (CEREP, HTRF); assay type: biochemical; settings: read-out: % Inhibition at 10 μM Concentration
Chain of KDR (VEGFR2) (P35968 20-1356): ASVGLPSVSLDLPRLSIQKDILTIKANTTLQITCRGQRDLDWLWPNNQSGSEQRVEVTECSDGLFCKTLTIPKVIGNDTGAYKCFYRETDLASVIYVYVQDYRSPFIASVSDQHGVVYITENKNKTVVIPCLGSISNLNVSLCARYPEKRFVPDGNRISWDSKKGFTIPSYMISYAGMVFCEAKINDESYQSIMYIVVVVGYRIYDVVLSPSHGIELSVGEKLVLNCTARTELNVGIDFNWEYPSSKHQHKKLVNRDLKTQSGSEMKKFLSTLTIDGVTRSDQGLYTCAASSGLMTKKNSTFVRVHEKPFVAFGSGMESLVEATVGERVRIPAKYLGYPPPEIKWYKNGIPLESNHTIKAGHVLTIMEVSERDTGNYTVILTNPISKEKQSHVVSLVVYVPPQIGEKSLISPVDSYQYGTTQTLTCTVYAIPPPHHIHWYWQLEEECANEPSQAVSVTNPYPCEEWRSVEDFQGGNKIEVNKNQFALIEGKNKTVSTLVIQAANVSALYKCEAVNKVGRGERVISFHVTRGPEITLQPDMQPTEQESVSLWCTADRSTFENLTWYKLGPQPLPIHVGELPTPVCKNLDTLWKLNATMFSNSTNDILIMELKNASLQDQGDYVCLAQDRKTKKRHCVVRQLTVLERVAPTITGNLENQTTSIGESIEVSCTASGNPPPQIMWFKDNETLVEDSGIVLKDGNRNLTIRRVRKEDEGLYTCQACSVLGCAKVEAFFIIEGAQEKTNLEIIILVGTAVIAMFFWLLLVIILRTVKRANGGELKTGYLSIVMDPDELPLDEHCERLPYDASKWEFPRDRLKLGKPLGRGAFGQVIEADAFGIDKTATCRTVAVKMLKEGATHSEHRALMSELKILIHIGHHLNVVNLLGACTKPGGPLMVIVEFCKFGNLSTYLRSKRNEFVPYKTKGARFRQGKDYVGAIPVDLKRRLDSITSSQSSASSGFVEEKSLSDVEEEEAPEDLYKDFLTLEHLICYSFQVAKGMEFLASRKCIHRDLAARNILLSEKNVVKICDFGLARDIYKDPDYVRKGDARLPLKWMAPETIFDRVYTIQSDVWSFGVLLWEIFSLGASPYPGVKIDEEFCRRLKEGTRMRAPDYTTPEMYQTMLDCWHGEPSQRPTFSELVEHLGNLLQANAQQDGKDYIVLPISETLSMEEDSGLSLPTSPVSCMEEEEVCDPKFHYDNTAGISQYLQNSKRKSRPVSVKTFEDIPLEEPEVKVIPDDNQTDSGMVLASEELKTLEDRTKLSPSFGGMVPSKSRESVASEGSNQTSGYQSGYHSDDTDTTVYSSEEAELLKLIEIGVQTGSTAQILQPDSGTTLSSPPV
Protocol: as §4

FGFR2 = FGFR2 (Homo sapiens, UniProt P21802); experiment: Kinase selectivity assay (CEREP, HTRF); assay type: biochemical; settings: read-out: % Inhibition at 10 μM Concentration
Chain of FGFR2 (P21802 22-821): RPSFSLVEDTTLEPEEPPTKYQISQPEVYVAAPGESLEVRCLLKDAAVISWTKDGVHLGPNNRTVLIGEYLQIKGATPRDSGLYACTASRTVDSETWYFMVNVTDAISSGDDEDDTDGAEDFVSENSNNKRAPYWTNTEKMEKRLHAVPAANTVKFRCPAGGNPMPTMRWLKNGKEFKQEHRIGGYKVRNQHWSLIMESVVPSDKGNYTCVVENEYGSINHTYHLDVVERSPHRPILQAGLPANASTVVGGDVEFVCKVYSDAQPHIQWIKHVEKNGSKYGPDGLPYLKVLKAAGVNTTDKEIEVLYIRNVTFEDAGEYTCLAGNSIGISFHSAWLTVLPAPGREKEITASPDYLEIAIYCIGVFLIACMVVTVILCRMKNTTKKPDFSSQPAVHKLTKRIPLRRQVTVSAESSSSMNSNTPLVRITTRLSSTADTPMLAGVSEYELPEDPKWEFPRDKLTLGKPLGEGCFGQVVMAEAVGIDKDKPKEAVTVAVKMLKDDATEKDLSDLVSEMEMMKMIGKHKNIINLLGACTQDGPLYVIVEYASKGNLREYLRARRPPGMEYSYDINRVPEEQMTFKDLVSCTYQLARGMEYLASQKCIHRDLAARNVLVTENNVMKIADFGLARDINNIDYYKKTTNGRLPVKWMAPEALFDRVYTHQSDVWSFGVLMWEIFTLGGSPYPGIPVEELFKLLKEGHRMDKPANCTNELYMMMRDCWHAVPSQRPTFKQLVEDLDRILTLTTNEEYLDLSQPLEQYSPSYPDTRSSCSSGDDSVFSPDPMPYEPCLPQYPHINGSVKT
Protocol: as §4

[11] = test system: MDA-MB-231 breast cancer cell line; experiment: Cell growth inhibition, SRB assay, extended panel; assay type: cell-based; settings: Homo sapiens, MDA-MB-231, read-out: GI50 Range MDA-MB-231
Protocol: Breast cancer and normal cells were seeded at various concentrations, ranging from 1500 to 4000 per 80 μl according to cell growth rate, into 96-well plates 24 hours before compound overlay. Each 10 mM stock solution in 100% DMSO of the compounds was diluted with Opti-MEM I Reduced-Serum Medium (Invitrogen, Canada) to make concentration ranges from 50 nM to 250 μM. 20 μl from each concentration was added to the cells to make the final concentration range from 10 nM to 50 μM. The cells were cultured at 37° C. for 5 days before the Sulforhodamine B (SRB) assay was performed to assess cell survival. SRB is a water-soluble dye that binds to the basic amino acids of cellular proteins. Thus, colorimetric measurement of the bound dye provides an estimate of the total protein mass and is related to cell number. The cells were fixed in situ by gently aspirating off the culture media and adding 50 μl ice-cold 10% Tri-chloroacetic Acid (TCA) per well and incubation at 4° C. for 30-60 min. The plates were washed with tap water five times and allowed to air dry for 5 min. […] Absorbances were read at 570 nm. The cell survival percentage at each compound concentration was calculated over the cell DMSO control, which was growing in the presence of 0.1% DMSO (0.5% in the case of 50 μM compounds). Cell viability GI50 values were calculated using GraphPad PRISM software (GraphPad Software, Inc.).

Row | Structure (SMILES) | GI50 [1] [µM] | GI50 [2] [µM] | % Inhibition at 10 μM Concentration (AMPKalpha) [%] | GI50 [3] [µM] | GI50 [4] [µM] | GI50 (518A2 melanoma cell line) [µM] | GI50 [5] [µM] | GI50 [6] [µM] | GI50 [7] [µM] | GI50 [8] [µM] | GI50 [9] [µM] | GI50 [10] [µM] | inhibition at 10 µM (KDR (VEGFR2)) [%] | inhibition at 10 µM (FGFR2) [%] | GI50 [11] [µM]
1 | COc1ccc2c(c1)[C@@]1(C[C@@H]1c1ccc3c(-c4ccc(N5CCN(C)CC5)nc4)n[nH]c3c1)C(=O)N2 (racemic) [Compound 2] | < 5 | < 5 |  |  |  |  |  |  |  |  |  |  |  |  | 
2 | CN(C)Cc1ccc(/C=C/c2n[nH]c3cc([C@H]4C[C@@]45C(=O)Nc4ccccc45)ccc23)cc1 (racemic) [Compound 35] | < 5 | < 5 | 69 |  |  |  |  |  |  |  |  |  |  |  | 
3 | COc1ccc2c(c1)/C(=C\c1ccc3c(/C=C/c4ccc(N5CCN(C)CC5)nc4)n[nH]c3c1)C(=O)N2 [Compound 3] |  |  |  | < 5 | < 5 | < 5 | < 5 | < 5 | < 5 | < 5 | < 5 | < 5 | 32 | 4 | < 5
